Our source for the Appearance, solubility and pKa values is US8642588B2, “Short-acting benzodiazepine salts and their polymorphic forms” (priority 2006, dated 2014).

What all share (assay type): physicochemical
A short description of data set [1]: Solid-state stability study of compound of formula (I) (appearance, HPLC content). The note with it: 34 days. The procedure:
Method/Technique. 2 mg samples of compound of formula (I), accurately weighed, were placed in 4-mL clear glass screw-cap vials. Samples were tested at initial and after 34 days stored at 5° C./Ambient Relative Humidity (AMRH) Closed, 30° C./60% RH Closed, 40° C./75% RH Open and 60° C./AMRH Closed.
Samples were inspected visually for appearance. Compound of formula (I) content values were determined by the HPLC method in Table 1. The % weight/weight (% w/w) values were measured relative to standard samples of compound of formula (I) Batch U12438/79/1. The % area values were obtained by dividing the compound of formula (I) peak area by the total peak area.

A short description of data set [2]: Solubility in organic solvents. The note with it: organic solvent or mixture, read-out: Min solvent required (solubility). The procedure:
The solubility of the compound of formula (I) was determined in a wide range of organic solvents.

Data set [3] in a line: pKa determination (potentiometric titration, Sirius GlpKa). The note with it: MeOH:H2O mixtures, extrapolated to 0% co-solvent, free base. The protocol:
Two basic centres of the free base of the compound were measured for pKa. […] The pKa of the basic centre of the imidazole ring was measured to be 4.53.
pka determination was performed on a Sirius GlpKa instrument with D-PAS attachment. Measurements were made by potentiometric titration in MeOH:H2O mixtures at 25° C. The titration media was ionic strength adjusted with 0.15M KCl. The values found in the MeOH:H2O mixtures were extrapolated to 0% co-solvent via a Yasuda-Shedlovsky extrapolation.

Data set [4] in a line: Solubility in water. As to conditions: thermodynamic from solid, 25° C., maximum 10 mg/ml of parent free form. The procedure: This was measured by suspending enough compound in 0.25 ml of solvent (water) to give a maximum final concentration of 10 mg/ml of the parent free form of the compound. The suspension was equilibrated at 25° C. for 24 hrs followed by a pH check and filtration through a glass fibre C 96 well plate. The filtrate is then diluted down 101×. Quantitation was by HPLC with reference to a standard dissolved in DMSO at approx 0.1 mg/ml. Different volumes of the standard, diluted and undiluted tests were injected. The solubility was calculated by integration of the peak area found at the same retention time as the peak maximum in the standard injection. If there is sufficient solid in the filter plate the XRPD is normally checked for phase changes, hydrate formation, amorphization, crystallization etc.

Each structure is given as a SMILES string. In brackets after ≈: the same amount, converted by molar mass. Where two headings read alike, the source gives them in different places.

One may read the solubility as the concentration that dissolves in the medium under given conditions. As usually defined, the pKa is the pH at which an ionisable group is half protonated. For `COC(=O)CC[C@@H]1N=C(c2ccccn2)c2cc(Br)ccc2-n2c(C)cnc21` [compound of formula (I), Methyl 3-[(4S)-8-bromo-1-methyl-6-(2-pyridinyl)-4H-imidazol[1,2-a][1,4]benzodiazepin-4-yl]propanoate], the Appearance result is “Deliquesced yellow mass on bottom” in data set [1] (40 C./75% RH Open) and “Deliquesced dark yellow to orange” in data set [1] (60 C./AMRH Closed). Moreover, the solubility in data set [2] (acetone) is 214 mg/mL; in data set [2] (acetonitrile) it was 362 mg/mL; in data set [2] (ethanol), 324 mg/mL; in data set [2] (ethyl acetate), 218 mg/mL; in data set [2] (methanol), 446 mg/mL; in data set [2] (propan-2-ol) it was 454 mg/mL. Further, the results for the solubility in data set [2] (tetrahydrofuran) and in data set [2] (toluene) were 311 mg/mL and 460 mg/mL, respectively. In addition, the values for the pKa in data set [3] (basic centre of the imidazole ring) and in data set [3] (basic centre of the pyridine ring) were 4.53 and 1.99, respectively.

In the case of `COC(=O)CC[C@@H]1N=C(c2ccccn2)c2cc(Br)ccc2-n2c(C)cnc21` [LJC-039-034-1], the solubility at 24 h in data set [4] was 7.8 mg/mL (≈ 17.8 mM).
